Experimental data taken from BindingDB's records for doi:10.1016/S0960-894X(97)00031-0 (1997).

Biological target: Human immunodeficiency virus type 1 protease (Human immunodeficiency virus 1, UniProt Q72874)
Experiment: ChEBML_157558
Description: Inhibition of HIV-1 protease.

Ki | SMILES
1.9 nM | O=c1oc2c(c(O)c1C(c1cccc(CS(=O)(=O)c3ccccn3)c1)C1CC1)CCCCCC2 (configuration not stated) [3-{Cyclopropyl-[3-(pyridine-2-sulfonylmethyl)-phenyl]-methyl}-4-hydroxy-5,6,7,8,9,10-hexahydro-cycloocta[b]pyran-2-one]
1.9 nM | N#Cc1ccc(S(=O)(=O)Cc2cccc(C(c3c(O)c4c(oc3=O)CCCCCC4)C3CC3)c2)cc1 (configuration not stated) [4-{3-[Cyclopropyl-(4-hydroxy-2-oxo-5,6,7,8,9,10-hexahydro-2H-cycloocta[b]pyran-3-yl)-methyl]-phenylmethanesulfonyl}-benzonitrile]
